Results reported in BindingDB's records for doi:10.1016/j.bmcl.2013.11.027 (Merck, 2013).

Target: Calcitonin gene-related peptide type 1 receptor/Receptor activity-modifying protein 1 (Homo sapiens, UniProt Q16602+O60894)
Experiment: Displacement of [125I]-hCGRP from human CALCRL/RAMP1 expressed in HEK293 cell membranes

Chain of Calcitonin gene-related peptide type 1 receptor/Receptor activity-modifying protein 1 (Q16602 whole entry): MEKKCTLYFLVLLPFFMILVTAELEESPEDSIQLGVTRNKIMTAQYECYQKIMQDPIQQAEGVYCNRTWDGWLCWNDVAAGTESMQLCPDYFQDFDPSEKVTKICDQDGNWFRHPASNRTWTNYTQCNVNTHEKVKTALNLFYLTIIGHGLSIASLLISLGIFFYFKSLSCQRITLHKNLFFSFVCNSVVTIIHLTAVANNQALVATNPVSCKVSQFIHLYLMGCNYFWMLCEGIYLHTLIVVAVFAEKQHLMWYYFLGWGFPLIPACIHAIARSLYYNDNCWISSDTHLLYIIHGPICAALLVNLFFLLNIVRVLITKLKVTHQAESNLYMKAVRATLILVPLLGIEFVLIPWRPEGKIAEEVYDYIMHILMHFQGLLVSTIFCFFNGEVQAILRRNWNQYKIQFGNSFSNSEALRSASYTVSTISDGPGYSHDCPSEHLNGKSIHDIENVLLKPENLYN
Chain of Calcitonin gene-related peptide type 1 receptor/Receptor activity-modifying protein 1 (O60894 whole entry): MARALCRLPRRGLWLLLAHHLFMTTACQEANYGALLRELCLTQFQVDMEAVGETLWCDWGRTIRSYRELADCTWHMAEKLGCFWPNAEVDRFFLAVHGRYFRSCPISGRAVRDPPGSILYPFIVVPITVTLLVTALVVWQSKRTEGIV

C[C@H](c1cc(F)cc(F)c1)N(C/C=C/c1cnc2c(c1)C[C@@]1(C2)C(=O)Nc2ncccc21)C(=O)C1(C(F)(F)F)CC1 [US8552023, 11]
Ki: 0.05 nM

Cc1ccc([C@@H](C)N(C/C=C/c2cnc3c(c2)C[C@@]2(C3)C(=O)Nc3ncccc32)C(=O)C(C)(C)C)cc1F [US8552023, 13]
Ki: 0.13 nM
